Assay [1] addresses T1, Beta-secretase 1 (Homo sapiens, UniProt P56817). Description: Inhibition of human recombinant BACE1 at 2 uM.
The target of assay [2] is T1, Beta-secretase 1. Description: Inhibition of human recombinant BACE1 at 0.2 uM.
The target in assay [3] is T1, Beta-secretase 1. Put plainly: Inhibition of human recombinant BACE1.

Each structure is given as a SMILES string.

T1 sequence (P56817 whole entry): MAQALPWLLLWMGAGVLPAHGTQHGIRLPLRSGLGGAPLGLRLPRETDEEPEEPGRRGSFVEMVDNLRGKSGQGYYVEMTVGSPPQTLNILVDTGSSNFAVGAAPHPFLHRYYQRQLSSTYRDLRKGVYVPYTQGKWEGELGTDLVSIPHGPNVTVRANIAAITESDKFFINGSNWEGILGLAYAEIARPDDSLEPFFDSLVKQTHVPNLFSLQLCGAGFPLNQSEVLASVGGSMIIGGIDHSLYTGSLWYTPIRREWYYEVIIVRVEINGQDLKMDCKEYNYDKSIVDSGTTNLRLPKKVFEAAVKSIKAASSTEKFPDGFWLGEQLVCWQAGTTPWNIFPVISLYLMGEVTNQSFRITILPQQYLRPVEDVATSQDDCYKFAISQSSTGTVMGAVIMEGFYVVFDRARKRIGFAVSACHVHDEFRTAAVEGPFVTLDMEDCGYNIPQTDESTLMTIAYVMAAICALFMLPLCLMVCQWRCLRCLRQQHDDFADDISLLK

The term inhibition denotes the change of the read-out against control, counted positive when it falls. Consider `CC(C)C[C@H](NC(=O)[C@@H](NC(=O)[C@@H](N)CCC(=O)O)C(C)C)C(=O)N[C@@H](Cc1ccccc1)[C@@H](O)C(=O)Nc1cc(C(F)(F)F)cc(C(F)(F)F)c1`, for which the inhibition on Beta-secretase 1 [1] is 74%. The same measure, in the same setting: to `CC(C)C[C@H](NC(=O)[C@@H](NC(=O)[C@@H](N)CCC(=O)O)C(C)C)C(=O)N[C@@H](Cc1ccccc1)[C@@H](O)C(=O)Nc1cccc(C(=O)NS(=O)(=O)C(F)(F)F)c1` belongs 86%; to `CC(C)C[C@H](NC(=O)[C@@H](NC(=O)[C@@H](N)CCC(=O)O)C(C)C)C(=O)N[C@@H](Cc1ccccc1)[C@@H](O)C(=O)Nc1ccccc1`, 53%. For the compound `CC(C)C[C@H](NC(=O)[C@@H](NC(=O)[C@@H](N)CNC(=O)c1nn[nH]n1)C(C)C)C(=O)N[C@@H](Cc1ccccc1)[C@@H](O)C(=O)Nc1cccc([N+](=O)[O-])c1`, the inhibition on Beta-secretase 1 [1] amounted to 96%; at Beta-secretase 1 [2], 70%. Usually IC50 stands for the point on the concentration scale where inhibition reaches its midpoint. With `CC(C)C[C@H](NC(=O)[C@@H](NC(=O)[C@@H](N)CNC(=O)c1nnn[nH]1)C(C)C)C(=O)N[C@@H](Cc1ccccc1)[C@@H](O)C(=O)Nc1cc(Cl)cc(Cl)c1`, the half-maximal inhibitory concentration (IC50) on Beta-secretase 1 [3] came out at 14 nM. For `CC(C)C[C@H](NC(=O)[C@@H](NC(=O)[C@@H](N)CCC(=O)O)C(C)C)C(=O)N[C@@H](Cc1ccccc1)[C@@H](O)C(=O)Nc1cccc(C(=O)C(F)(F)F)c1`, the inhibition on Beta-secretase 1 [1] stood at 51%. Still for that read-out and setting: to `CC(C)C[C@H](NC(=O)[C@@H](NC(=O)[C@@H](N)CCC(=O)O)C(C)C)C(=O)N[C@@H](Cc1ccccc1)[C@@H](O)C(=O)Nc1cc(Cl)cc(Cl)c1` belongs 78%. Regarding `CC(C)C[C@H](NC(=O)[C@@H](NC(=O)[C@@H](N)CNC(=O)c1nn[nH]n1)C(C)C)C(=O)N[C@@H](Cc1ccccc1)[C@@H](O)C(=O)Nc1cccc(OC(F)(F)F)c1`, the inhibition was found to be 93% at Beta-secretase 1 [1] and 72% on Beta-secretase 1 [2]. For `CC(C)C[C@H](NC(=O)[C@@H](NC(=O)[C@@H](N)CNC(=O)c1nn[nH]n1)C(C)C)C(=O)N[C@@H](Cc1ccccc1)[C@@H](O)C(=O)Nc1cc([N+](=O)[O-])cc([N+](=O)[O-])c1`, in that order: 96% and 75%. For `CC(C)C[C@H](NC(=O)[C@@H](NC(=O)[C@@H](N)CNC(=O)c1nn[nH]n1)C(C)C)C(=O)N[C@@H](Cc1ccccc1)[C@@H](O)C(=O)Nc1cc(Br)cc(C(F)(F)F)c1`, in that order: 92% and 57%. For `CC(C)C[C@H](NC(=O)[C@@H](NC(=O)[C@@H](N)CCC(=O)O)C(C)C)C(=O)N[C@@H](Cc1ccccc1)[C@@H](O)C(=O)Nc1cccc(O)c1`, on Beta-secretase 1 [1], the inhibition was 54%. On the same count and under the same terms, the same measure for `CC(C)C[C@H](NC(=O)[C@@H](NC(=O)[C@@H](N)CCC(=O)O)C(C)C)C(=O)N[C@@H](Cc1ccccc1)[C@@H](O)C(=O)Nc1cc(Cl)c(O)c(Cl)c1`: 80%.

For the compound `CC(C)C[C@H](NC(=O)[C@@H](NC(=O)[C@@H](N)CNC(=O)c1nn[nH]n1)C(C)C)C(=O)N[C@@H](Cc1ccccc1)[C@@H](O)C(=O)Nc1cc(Cl)cc(Cl)c1`, the figures for the inhibition on Beta-secretase 1 [1] and at Beta-secretase 1 [2] were 99% and 84%, respectively. On to `Cc1nc(NC(=O)[C@H](O)[C@H](Cc2ccccc2)NC(=O)[C@H](CC(C)C)NC(=O)[C@@H](NC(=O)[C@@H](N)CCC(=O)O)C(C)C)sc1C(=O)O`, for which the inhibition on Beta-secretase 1 [1] was 94%.

Regarding `CC(C)C[C@H](NC(=O)[C@@H](NC(=O)[C@@H](N)CCC(=O)O)C(C)C)C(=O)N[C@@H](Cc1ccccc1)[C@@H](O)C(=O)Nc1ccccc1O`, the inhibition at Beta-secretase 1 [1] turned out to be 60%.

`CC(C)C[C@H](NC(=O)[C@@H](NC(=O)[C@@H](N)CCC(=O)O)C(C)C)C(=O)N[C@@H](Cc1ccccc1)[C@@H](O)C(=O)Nc1cccc([N+](=O)[O-])c1`: the inhibition at Beta-secretase 1 [1] is 71%. For `CC(C)C[C@H](NC(=O)[C@@H](NC(=O)[C@@H](N)CNC(=O)c1nn[nH]n1)C(C)C)C(=O)N[C@@H](Cc1ccccc1)[C@@H](O)C(=O)NS(=O)(=O)C(F)(F)F`, the inhibition was found to be 98% at Beta-secretase 1 [1] and 81% at Beta-secretase 1 [2]. On to `CCOC(=O)c1sc(NC(=O)[C@H](O)[C@H](Cc2ccccc2)NC(=O)[C@H](CC(C)C)NC(=O)[C@@H](NC(=O)[C@@H](N)CCC(=O)O)C(C)C)nc1C`, for which the inhibition on Beta-secretase 1 [1] is 66%. The same measure, in the same setting: to `CC(C)C[C@H](NC(=O)[C@@H](NC(=O)[C@@H](N)CCC(=O)O)C(C)C)C(=O)N[C@@H](Cc1ccccc1)[C@@H](O)C(=O)Nc1cc([N+](=O)[O-])cc([N+](=O)[O-])c1` belongs 60%.

On to `CC(C)C[C@H](NC(=O)[C@@H](NC(=O)[C@@H](N)CNC(=O)c1nnn[nH]1)C(C)C)C(=O)N[C@@H](Cc1ccccc1)[C@@H](O)C(=O)NS(=O)(=O)C(F)(F)F`, for which, at Beta-secretase 1 [3], the 50% inhibitory concentration (IC50) was 29.9 nM. For `CC(C)C[C@H](NC(=O)[C@@H](NC(=O)[C@@H](N)CNC(=O)c1nn[nH]n1)C(C)C)C(=O)N[C@@H](Cc1ccccc1)[C@@H](O)C(=O)Nc1cc(C(F)(F)F)cc(C(F)(F)F)c1`, the inhibition was 95% on Beta-secretase 1 [1] and 68% on Beta-secretase 1 [2].

The values above are taken from ChEMBL document CHEMBL1142296, “BACE1 inhibitors: optimization by replacing the P1' residue with non-acidic moiety” (Bioorg Med Chem Lett, 2008).
